“Also recorded” adds a separate entry of the source.
Tests used:
Endonuclease S1 = test: Enzymatic degradation of hexamers by endonuclease S1; format: in vitro ADME
Text: (§1) Study of the substrate-type activities of hexamers 4'-SrU6, 4'-SrU6 -3'n-prOH compared with the substrate characteristics of the hexamers βrU6 and αrU6 in relation to various purified nucleases.
Endonuclease S1, specific for the single DNA strand hydrolyzes the phosphodiester bonds in a random manner.
(§2) These four enzymes were obtained from Boehringer Mannheim.
(§3) Generally, one optical density unit at 260 nm of each hexamer is brought into contact with a certain concentration of the enzyme considered and is then diluted in a sufficient quantity for 1000 μl of enzymatic digestion buffer.
(§4) Various digestion buffers were used depending on the nature of the enzyme (Table 9).
(§5) The stock sample is divided into 10 fractions of 100 μl before being frozen at -18° C.
(§6) One aliquot fraction of 100 μl is collected and incubated in a dry oven thermostated at 37° C. for a time t and is then analyzed by analytical HPLC.
(§7) The study of the surface area of the signal corresponding to the hexamer makes it possible to measure a kinetics of degradation whose half-life period is calculated (Table 10).

Ribonuclease A = test: Enzymatic degradation of hexamers by ribonuclease A; format: in vitro ADME
Method: as §1
Ribobuclease A degrades an oligoribonucleotide after the pyrimidine residues.
as §2, §3, §4, §5, §6, §7

[1] = test system: 5'-exonuclease calf spleen phosphodiesterase; test: Enzymatic degradation of hexamers by 5'-exonuclease calf spleen phosphodiesterase; format: in vitro ADME
Text: as §1
Calf spleen phosphodiesterase (CSP) is a 5'-exonuclease which degrades the oligonucleotides from their 5' end and liberates nucleotides 3'-phosphates.
as §2, §3, §4, §5, §6, §7

[2] = test system: 3'-exonuclease snake venom phosphodiesterase; format: in vitro ADME
Text: as §1
Snake venom phosphodiesterase (VSP) is a 3'-exonuclease-3' which liberates nucleotides 5'-phosphate after degrading the oligomer by its 3' end.
as §2, §3, §4, §5, §6, §7

[3] = test system: calf spleen phosphodiesterase; test: Enzymatic degradation of the dodecamers by calf spleen phosphodiesterase; format: in vitro ADME; conditions: for Degradation in 0 min / Degradation in 25 min: Table 8
Text: Study of the enzymatic degradation of the dodecamer β(SrT)dT11 (SEQ ID NO: 3) by calf spleen phosphodiesterase. Calf spleen phosphodiesterase is an exonuclease which degrades the oligomers from their free 5' ends, thus liberating nucleotides 3' phosphate.
This study will allow us to evaluate the resistance to enzymatic degradation induced by the presence in the 5' position of a 4'-thionucleotide unit in the oligomer β(SrT)dT11 (SEQ ID NO: 3) compared to the enzymatic degradation of the oxygenated natural homolog βdT12 (SEQ ID NO: 3). The comparative stability of the two dodecamers βdT12 (SEQ ID NO: 3) and β(SrT)dT11 (SEQ ID NO: 3) towards hydrolysis by calf spleen phosphodiesterase is presented in Table 8.
The variation over time of the enzymatic degradation of the two dodecamers was monitored by HPLC. We were able to plot the curve for enzymatic digestion of β(SrT)dT11 (SEQ ID NO: 3) as a function of time: A=A0 e^-kt (FIG. 2, A) where:
A0 is the initial surface area of the 12-mer
A is the surface area of the 12-met at the instant t
k is the first order rate constant for the degradation
An oligonucleotide solution (20 μl, 3 absorbance units at 260 nm) is diluted in 0.125M ammmonium acetate buffer (pH 7.0), 2.5 mM EDTA and 0.065% Tween 80 (80 μL). A commercial solution of calf spleen phosphodisesterase (2 μl, final concentration 0.008 unit/ml) is added and the mixture is incubated at 37° C. At determined times, aliquot fractions are collected (5 μl), heated at 100° C. for one minute and analyzed by HPLC.
The analyses were carried out on an PVDI (Polyvinylimidazole SFCC-Shandon) column protected by a precolumn and a prefilter. The elution is carried out based on a linear gradient over 20 minutes from 0.1M to 0.4M KCl in 20 mM KH2 PO4 at pH 6 containing 20% acetonitrile. The flow rate was fixed at 1 ml/min and the UV detection at 260 nm.

[4] = test system: βdC2 A12 C2 (SEQ ID NO: 4); test: Melting of duplexes with βdC2 A12 C2 (UV spectrophotometry, melting temperature); format: binding; conditions: for Melting temperature (Tm): 10 mM sodium cacodylate, pH 7; for Tm: Table 7, duplex with d(C2 A12 C2), 3 μM
Text: (§8) UV spectrophotometry makes it possible to study the nucleic acids and to detect the formation of duplex, the melting temperature being one of the characteristics of a duplex. The stacking and pairing of the bases of the nucleic acids are accompanied by a decrease in the UV absorbtion (hypochromicity). […] The point of inflection of the curve, of sygmoidal shape, of the variation of the absorbance as as function of temperature is called melting temperature or Tm and corresponds to the co-existence of separate strands and paired strands in a 50/50 ratio.
(§9) Analysis of the melting curves for the β-4'-thiooligoribonucleotide/β-oligodeoxyribonucleotide and β-4'-thiooligoribonucleotide/β-oligoribonucleotide duplexes will make it possible to define the thermal stability of such duplexes by the measurement of the melting temperature. These hybridization experiments are carried out preserving a 1/1 stoichiometry between the two complementary strands, in the presence of a 1M NaCl, 10 mM sodium cacodylate buffer. A high NaCl concentration indeed favors the pairings by solvating the negative charges around the phosphorus atoms of the two oligonucleotides. We therefore carried out these hybridization experiments in a 0.1M NaCl, 10 mM sodium cacodylate buffer.
(§10) In order to carry out the hybridization experiment, it is necessary to know the concentration of each oligomer in order to preserve the 1:1 stoichiometry between the two complementary strands. According to the BEER-LAMBERT law A=ε1c, the absorbances of the oligomers were measured at 80° C. in order to remove the phenomenon of stacking of the bases creating a disturbance in the hyperchromicity due to the existence of tertiary structures.
(§11) The hybridization experiments were carried out with a UVIKON 810 spectrophotometer (KONTRON), coupled to an IBM-compatible microcomputer. […] The UV cuvettes are made from quartz of 1 cm in length and a continous circulation of nitrogen is used for temperatures of less than 20° C. […] This mixture is heated at 80° C. for 1 hour, and then cooled to -20° C. according to a temperature gradient of 0.5° C. per minute. The absorbance and temperature values are collected every 30 seconds.
(§12) The same experiment is carried out using a sufficient quantity for 1000 μl of 0.1M NaCl, 10 mM sodium cacodylate hybridization buffer adjusted to pH 7 in order to evaluate the thermal stability of the duplex in this buffer which favors the pairings less.
(§13) The hybridization experiments were carried out preserving the 1/1 stoichiometry between the two complementary strands in the presence of a 1M NaCl, 10 mM sodium cacodylate buffer. A high NaCl concentration indeed favors the pairings by solvating the negative charges around the phosphorus atoms of the two oligonucleotides. We carried out these hybridization experiments in another buffer 0.1M NaCl, 10 mM sodium cacodylate.
as §10, with “experiments,” for “experiment,”
as §11

polyrA = test: Melting of duplexes with polyrA (UV spectrophotometry, melting temperature); format: binding; conditions: for Tm: Table 7, duplex with poly rA, 3 μM; for thermal stability with complementary RNA (in words): complementary RNA sequences; for Melting temperature (Tm) / hypochromicity: Table 4, 3 μM of each oligomer; for Melting temperature (Tm): 10 mM sodium cacodylate, pH 7
Text: as §8, §9, §10, §11, §12, §13
as §10, with “experiments,” for “experiment,”
as §11

βSrU12 (SEQ ID NO: 5) = test: Self-hybridization of the oligomer βSrU12; format: binding; conditions: 1M and 0.1M NaCl
Method: For that, an experiment for self-hybridization of the dodecamer βSrU12 (SEQ ID NO: 5) was carried out at two NaCl concentrations (1M and 0.1M). […] No point of inflection can be visualized on such a straight line.
The hybridization experiments were carried out with a UVIKON 810 spectrophotometer (KONTRON), coupled to an IBM-compatible microcomputer. The temperature is controlled by a HUBER PD 415 temperature programmer connected to a thermostated bath (HUMER […]). The UV cuvettes are made from quartz of 1 cm in length and a continous circulation of nitrogen is used for temperatures of less than 20° C. Before the experiment, 3 μM (Examples 1 to V) or 10 μM (Examples VI and VII) of complementary oligomers are brought into contact in a sufficient quantity for 1000 μl of 1M NaCl and 10 mM sodium cacodylate buffer, adjusted to pH 7 (Examples I to VII). This mixture is heated at 80° C. for 1 hour, and then cooled to -20° C. according to a temperature gradient of 0.5° C. per minute. The absorbance and temperature values are collected every 30 seconds.
as §12
Concentration of βrU12 (SEQ ID NO: 5)=0.351 mM […]

[5] = Table 6, 1M NaCl, 10 μM of each oligomer
[6] = Table 5, 0.1M NaCl, 3 μM of each oligomer
[7] = Table 5, 1M NaCl, 3 μM of each oligomer

4'-Sr-(U-U-U-U-U-U) [βSrU6]
enzymatic resistance compared with βrU6 (in words) (Endonuclease S1; S1): high enzymatic resistance
Half-life period (Endonuclease S1; Table 10, S1 20 units/ml, pH 4.7, 37° C.): 15.5 h
enzymatic resistance compared with βrU6 (in words) (Ribonuclease A; RNase-A): high enzymatic resistance
Half-life period (Ribonuclease A; Table 10, RNAse A 2 × 10^-2 units/ml, pH 7.4, 37° C.): 11.2 h
enzymatic resistance compared with βrU6 (in words) ([1]; CSP): high enzymatic resistance
Half-life period ([1]; Table 10, CSP 13 × 10^-3 units/ml, pH 7, 37° C.): 65 h
Half-life period ([2]; Table 10, VSP 6 × 10^-4 units/ml, pH 9.4, 37° C.): 1.27 h
enzymatic resistance compared with βrU6 (in words) ([2]; VSP): high enzymatic resistance

βdT12: oxygenated natural homolog βdT12 [reference compound]
half-life period (t1/2) ([3]; FIG. 2, 37° C., 0.008 unit/ml): 0.017 h
Degradation in 0 min ([3]; 37° C., 0.008 unit/ml): 0%
Degradation in 25 min ([3]; 37° C., 0.008 unit/ml): 93%
Melting temperature (Tm) [4, 5]: 45 °C
hypochromicity [4, 5]: 20.5%

4'-SrU3 -dT6 -4'-SrU3 /P3 PS5 P3 (UUUTTTTTTUUU; 4'-thioribouridine units; phosphorothioate bonds) [compound 5, mixed dodecamer containing both phosphodiester and phosphorothioate bonds]
Tm ([4]; 0.1 M NaCl): 3 °C
Tm ([4]; 1 M NaCl): 19 °C
Tm (polyrA; 0.1 M NaCl): 24 °C
Tm (polyrA; 1 M NaCl): 36 °C
thermal stability with complementary RNA (in words) (polyrA): good thermal stability
decrease in the Tm value per phosphorothioate linkage (polyrA; with poly rA and d(C2 A12 C2), versus phosphodiester oligomer 4): about 2 °C

4'-SrU3 -dT6 -4'-SrU3 /P11 (UUUTTTTTTUUU; 4'-thioribouridine units) [compound 4, mixed dodecamer with phosphodiester bonds]
Tm ([4]; 0.1 M NaCl): 10 °C
Tm ([4]; 1 M NaCl): 31 °C
Tm values compared with those of βrSU12 (in words) ([4]; with d(C2 A12 C2)): equivalent
Tm (polyrA; 0.1 M NaCl): 32 °C
Tm (polyrA; 1 M NaCl): 45 °C
thermal stability with complementary RNA (in words) (polyrA): good thermal stability
Tm values compared with those of βrSU12 (in words) (polyrA; with poly rA): equivalent

βSrU12: homododecamer 4'-thio-β-D-ribonucleotide (βrSU12)
self-hybridization (in words) (βSrU12 (SEQ ID NO: 5)): does not self-pair; also recorded: no self-hybridization
Melting temperature (Tm) [4, 6]: 5 °C
hypochromicity [4, 6]: 5.6%
Melting temperature (Tm) [4, 7]: 27 °C
hypochromicity [4, 7]: 9.3%
Melting temperature (Tm) (polyrA; 0.1M NaCl): 33 °C
hypochromicity (polyrA; 0.1M NaCl): 25%
Melting temperature (Tm) (polyrA; 1M NaCl): 46 °C
hypochromicity (polyrA; 1M NaCl): 25%
thermal stability with complementary RNA (in words) (polyrA): good thermal stability

βdT5 (SrT)dT6: dodecamer βdT5 (SrT) dT6
difference in Tm (modified duplex lower than natural duplex) ([4]; 1M NaCl, 10 μM, versus βdT12/βdC2 A12 C2): 5 °C
Melting temperature (Tm) [4, 5]: 40 °C
hypochromicity [4, 5]: 18%

β(SrT)dT11: dodecamer with a 4'-thionucleotide unit in the 5' position (TTTTTTTTTTTT; 5' 4'-thionucleotide unit)
first order rate constant for the degradation (k) ([3]; FIG. 2, 37° C., 0.008 unit/ml): 0.016 min⁻¹
half-life period (t1/2) ([3]; FIG. 2, 37° C., 0.008 unit/ml): 0.717 h
Degradation in 0 min ([3]; 37° C., 0.008 unit/ml): 0%
Degradation in 25 min ([3]; 37° C., 0.008 unit/ml): 23%
half-life period compared with that of βSrU12 (in words) ([3]; degradation by the 5' end): substantially greater
